Results: patent publication US11618758B2, “Bicyclic and tricyclic pyrimidine tyrosine kinase inhibitors with antitubulin activity and methods of treating a patient” (Duquesne University of the Holy Spirit, priority 2011, dated 2023)

Assays:
[1] = molecular target: T1, epidermal growth factor receptor (EGFR) (Homo sapiens, UniProt P00533); test: Kinase inhibition EGFR; assay type: biochemical; conditions: comparable to sunitinib
[2] = molecular target: vascular endothelial growth factor receptor (VEGFR2, Flk-1) (Homo sapiens, UniProt P35968); test: Kinase inhibition VEGFR2; assay type: biochemical; conditions: comparable to sunitinib
[3] = molecular target: platelet derived growth factor receptor-β (PDGFR-β) (Homo sapiens, UniProt P09619); test: Kinase inhibition PDGFRβ; assay type: biochemical; conditions: comparable to sunitinib
[4] = molecular target: T1, epidermal growth factor receptor (EGFR); conditions: does not inhibit EGFR even at these concentrations; cited from earlier work

T1 sequence (P00533 25-1210, species assumed): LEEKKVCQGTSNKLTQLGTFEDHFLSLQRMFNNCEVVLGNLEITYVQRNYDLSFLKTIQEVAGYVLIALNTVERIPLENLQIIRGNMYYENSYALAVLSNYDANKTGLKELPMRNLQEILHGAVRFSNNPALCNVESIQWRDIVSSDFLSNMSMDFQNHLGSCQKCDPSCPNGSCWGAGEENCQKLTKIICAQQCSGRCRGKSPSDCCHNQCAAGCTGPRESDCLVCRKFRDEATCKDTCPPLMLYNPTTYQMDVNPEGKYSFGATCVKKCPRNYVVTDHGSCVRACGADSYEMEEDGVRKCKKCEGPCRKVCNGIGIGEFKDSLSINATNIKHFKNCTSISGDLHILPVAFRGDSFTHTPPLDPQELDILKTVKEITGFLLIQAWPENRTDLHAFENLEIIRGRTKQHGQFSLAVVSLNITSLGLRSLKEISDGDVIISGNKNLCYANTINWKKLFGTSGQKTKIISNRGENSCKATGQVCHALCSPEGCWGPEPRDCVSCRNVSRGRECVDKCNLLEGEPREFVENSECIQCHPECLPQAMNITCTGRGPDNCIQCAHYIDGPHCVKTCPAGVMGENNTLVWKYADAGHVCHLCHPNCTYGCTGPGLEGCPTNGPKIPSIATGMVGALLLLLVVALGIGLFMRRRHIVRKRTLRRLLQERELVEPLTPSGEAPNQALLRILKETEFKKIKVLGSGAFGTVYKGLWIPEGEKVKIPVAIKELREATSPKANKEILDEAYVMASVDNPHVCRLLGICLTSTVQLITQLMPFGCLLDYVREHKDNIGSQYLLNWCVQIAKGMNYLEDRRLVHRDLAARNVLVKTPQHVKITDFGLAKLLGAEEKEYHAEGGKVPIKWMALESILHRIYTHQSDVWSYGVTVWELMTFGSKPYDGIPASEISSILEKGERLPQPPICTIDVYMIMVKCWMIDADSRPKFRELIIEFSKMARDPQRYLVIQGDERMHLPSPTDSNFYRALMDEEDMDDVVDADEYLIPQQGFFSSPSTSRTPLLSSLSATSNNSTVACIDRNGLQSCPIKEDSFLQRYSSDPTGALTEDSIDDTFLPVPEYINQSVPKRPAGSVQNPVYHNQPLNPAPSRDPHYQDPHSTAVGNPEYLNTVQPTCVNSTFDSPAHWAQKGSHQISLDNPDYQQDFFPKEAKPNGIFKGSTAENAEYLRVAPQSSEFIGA
vascular endothelial growth factor receptor (VEGFR2, Flk-1), sequence (P35968 20-1356): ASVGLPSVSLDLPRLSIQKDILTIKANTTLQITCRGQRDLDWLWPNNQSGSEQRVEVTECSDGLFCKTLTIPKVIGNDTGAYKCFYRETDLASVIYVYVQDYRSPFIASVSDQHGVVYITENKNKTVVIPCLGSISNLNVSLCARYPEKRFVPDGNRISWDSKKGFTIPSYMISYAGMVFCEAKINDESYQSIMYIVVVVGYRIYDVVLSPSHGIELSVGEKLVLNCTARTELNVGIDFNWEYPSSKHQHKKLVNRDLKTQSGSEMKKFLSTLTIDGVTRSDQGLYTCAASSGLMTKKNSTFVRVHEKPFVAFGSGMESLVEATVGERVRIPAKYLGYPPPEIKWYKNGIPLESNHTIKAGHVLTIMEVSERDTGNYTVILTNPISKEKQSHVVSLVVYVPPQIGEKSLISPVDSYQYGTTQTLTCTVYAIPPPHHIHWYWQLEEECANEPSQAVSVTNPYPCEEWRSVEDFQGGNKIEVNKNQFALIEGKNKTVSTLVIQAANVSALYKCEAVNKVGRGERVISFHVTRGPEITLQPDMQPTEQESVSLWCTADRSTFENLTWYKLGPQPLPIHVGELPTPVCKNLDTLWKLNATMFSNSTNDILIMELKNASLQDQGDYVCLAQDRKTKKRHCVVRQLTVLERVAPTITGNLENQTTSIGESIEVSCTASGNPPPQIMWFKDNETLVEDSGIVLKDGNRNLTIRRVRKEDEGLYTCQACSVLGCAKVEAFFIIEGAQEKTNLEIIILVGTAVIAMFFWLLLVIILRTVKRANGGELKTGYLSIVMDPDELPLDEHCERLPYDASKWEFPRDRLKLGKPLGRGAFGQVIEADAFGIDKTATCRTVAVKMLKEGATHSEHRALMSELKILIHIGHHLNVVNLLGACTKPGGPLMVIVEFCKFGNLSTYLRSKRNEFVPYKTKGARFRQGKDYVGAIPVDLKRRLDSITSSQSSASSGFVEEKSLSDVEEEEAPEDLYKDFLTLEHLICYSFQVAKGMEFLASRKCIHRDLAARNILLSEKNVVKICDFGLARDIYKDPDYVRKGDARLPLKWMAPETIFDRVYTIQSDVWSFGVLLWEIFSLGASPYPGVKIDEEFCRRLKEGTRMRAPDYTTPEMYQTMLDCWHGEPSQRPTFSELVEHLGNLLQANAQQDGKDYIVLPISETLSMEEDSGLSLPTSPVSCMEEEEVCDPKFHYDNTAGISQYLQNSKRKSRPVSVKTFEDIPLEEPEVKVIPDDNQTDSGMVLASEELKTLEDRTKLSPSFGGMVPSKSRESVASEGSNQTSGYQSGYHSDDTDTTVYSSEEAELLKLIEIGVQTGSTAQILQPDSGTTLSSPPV
platelet derived growth factor receptor-β (PDGFR-β), sequence (P09619 33-1106, species assumed): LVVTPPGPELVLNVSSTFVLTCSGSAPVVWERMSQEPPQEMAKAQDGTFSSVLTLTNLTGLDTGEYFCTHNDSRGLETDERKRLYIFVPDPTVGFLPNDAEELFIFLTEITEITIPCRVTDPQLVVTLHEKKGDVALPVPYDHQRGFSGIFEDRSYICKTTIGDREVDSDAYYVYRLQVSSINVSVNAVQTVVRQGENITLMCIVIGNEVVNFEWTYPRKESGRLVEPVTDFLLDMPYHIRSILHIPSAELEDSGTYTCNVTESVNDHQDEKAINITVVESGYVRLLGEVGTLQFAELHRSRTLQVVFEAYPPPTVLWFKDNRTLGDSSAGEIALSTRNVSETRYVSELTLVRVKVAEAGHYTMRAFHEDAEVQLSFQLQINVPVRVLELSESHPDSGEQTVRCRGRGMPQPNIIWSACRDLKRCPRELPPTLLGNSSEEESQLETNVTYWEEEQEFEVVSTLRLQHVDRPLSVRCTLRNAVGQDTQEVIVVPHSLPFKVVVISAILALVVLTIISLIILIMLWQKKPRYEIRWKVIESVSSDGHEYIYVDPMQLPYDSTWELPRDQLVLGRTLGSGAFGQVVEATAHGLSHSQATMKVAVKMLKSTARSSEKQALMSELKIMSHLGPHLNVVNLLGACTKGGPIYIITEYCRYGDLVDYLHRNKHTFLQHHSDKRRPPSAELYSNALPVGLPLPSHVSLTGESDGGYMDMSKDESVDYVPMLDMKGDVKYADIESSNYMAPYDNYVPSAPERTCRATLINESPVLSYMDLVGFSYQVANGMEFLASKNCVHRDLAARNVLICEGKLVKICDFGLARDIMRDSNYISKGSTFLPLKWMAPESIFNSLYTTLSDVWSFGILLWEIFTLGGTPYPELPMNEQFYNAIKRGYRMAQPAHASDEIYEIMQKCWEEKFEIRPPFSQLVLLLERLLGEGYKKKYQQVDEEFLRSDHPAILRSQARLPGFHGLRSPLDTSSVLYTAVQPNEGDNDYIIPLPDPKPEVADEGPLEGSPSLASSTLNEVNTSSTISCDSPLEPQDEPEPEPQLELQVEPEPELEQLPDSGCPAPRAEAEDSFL

SMILES	EGFR kinase inhibition (in words, FIG. 16) [1]	Flk-1 (VEGR2) kinase inhibition (in words, FIG. 16) [2]	PDGFR kinase inhibition (in words, FIG. 16) [3]	concentration at which EGFR is not inhibited [4]
COc1ccc2c(c1)CCCN2c1nc(C)nc2c1[nH]c1ccccc12 [Composition 106]	potent inhibitors	potent inhibitors	potent inhibitors	
CN(C)c1ccc(/C=C2\C(=O)Nc3ccccc32)cc1 [DMBI]				greater than 100 μM
